Patent US9101638B2, “Boronic acid derivatives and therapeutic uses thereof” (Rempex Pharmaceuticals, Inc., priority 2013, dated 2015)

Legend:
Urokinase = target: T1, Urokinase (Homo sapiens, UniProt P00749); assay: Serine protease inhibition: urokinase; type: biochemical, mammalian; conditions: Table 8A, class symbols; read-out: IC50 Urokinase
T1 construct: purchased Calbiochem 672112
In short: (§1)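 Each enzyme was preincubated with inhibitor at various concentrations in its corresponding buffer for 10 min at 37° C, after which its substrate was added. Absorbance or fluorescence was followed for 30 min, and reaction rates were expressed relative to an untreated control.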

Plasmin = target: T2, Plasmin (Homo sapiens, UniProt P00747); assay: Serine protease inhibition: plasmin; type: biochemical, mammalian; conditions: Table 8A, class symbols; read-out: IC50 Plasmin
T2 construct: Plasmin; MPBio; 19419890; purchased MPBio 19419890
T2 sequence (P00747 581-810 limits assumed, species assumed): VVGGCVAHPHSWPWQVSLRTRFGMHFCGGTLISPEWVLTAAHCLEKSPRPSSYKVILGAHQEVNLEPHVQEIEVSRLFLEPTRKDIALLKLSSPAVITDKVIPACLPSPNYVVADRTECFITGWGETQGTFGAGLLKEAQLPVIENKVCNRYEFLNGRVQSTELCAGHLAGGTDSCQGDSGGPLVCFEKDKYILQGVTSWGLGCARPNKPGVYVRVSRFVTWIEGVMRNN
T2 sequence (P00747 97-580 partner limits assumed, species assumed): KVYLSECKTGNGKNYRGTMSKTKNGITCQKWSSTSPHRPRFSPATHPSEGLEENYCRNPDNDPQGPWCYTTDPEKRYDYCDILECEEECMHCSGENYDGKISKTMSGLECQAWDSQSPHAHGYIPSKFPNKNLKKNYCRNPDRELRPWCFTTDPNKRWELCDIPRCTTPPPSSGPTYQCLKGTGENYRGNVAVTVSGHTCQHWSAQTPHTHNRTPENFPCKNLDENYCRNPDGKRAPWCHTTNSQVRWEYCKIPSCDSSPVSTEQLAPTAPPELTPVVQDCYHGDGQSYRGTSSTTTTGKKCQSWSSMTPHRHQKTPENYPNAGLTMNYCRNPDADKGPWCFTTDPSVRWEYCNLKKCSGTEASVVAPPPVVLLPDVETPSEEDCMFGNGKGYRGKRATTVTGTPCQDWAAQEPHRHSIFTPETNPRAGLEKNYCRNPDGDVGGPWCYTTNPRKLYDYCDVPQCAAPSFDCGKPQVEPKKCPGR
Description: (§2) The effect of selected BLIs on the enzymatic activity of some common mammalian serine proteases was evaluated.
(§3) 50 μl of the diluted enzyme was mixed with 50 μl of inhibitor at various concentrations and 50 μl of corresponding buffer (Table 7). Reaction mixtures were incubated for 10 min at 37° C. Subsequently, 50 μl of corresponding substrate (Table 7) was added and absorbance or fluorescence was monitored for 30 min on SpectraMax M2 plate reader (Molecular Devices). 4-(2-Aminoethyl)benzenesulfonyl fluoride hydrochloride (AEBSF) and leupeptin were used as positive controls. Rates of reaction were calculated and presented relative to “no treatment” control.

Elastase = target: T3, Elastase (Sus scrofa, UniProt P00772); assay: Serine protease inhibition: elastase; type: biochemical, mammalian; conditions: Table 8A, class symbols; read-out: IC50 Elastase
T3 construct: purchased Calbiochem 324682
T3 sequence (P00772 27-266): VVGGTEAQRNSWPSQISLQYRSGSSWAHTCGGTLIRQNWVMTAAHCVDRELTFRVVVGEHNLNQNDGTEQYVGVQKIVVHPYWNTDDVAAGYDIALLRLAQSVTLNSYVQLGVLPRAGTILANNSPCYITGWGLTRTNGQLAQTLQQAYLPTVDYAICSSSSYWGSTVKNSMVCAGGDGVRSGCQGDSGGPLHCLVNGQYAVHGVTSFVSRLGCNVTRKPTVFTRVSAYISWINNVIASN
Description: as §2, §3

KP1004 (K-2) = assay: Potentiation of aztreonam, strain KP1004; type: cell-based; conditions: minimum BLI concentration inhibiting growth with 4 μg/mL aztreonam
Chymase = target: T4, Chymase (Homo sapiens, UniProt P23946); assay: Serine protease inhibition: chymase; type: biochemical, mammalian; conditions: Table 8A, class symbols; read-out: IC50 Chymase
T4 construct: purchased Enzo Lifescience BML-SE281
T4 sequence (P23946 22-247): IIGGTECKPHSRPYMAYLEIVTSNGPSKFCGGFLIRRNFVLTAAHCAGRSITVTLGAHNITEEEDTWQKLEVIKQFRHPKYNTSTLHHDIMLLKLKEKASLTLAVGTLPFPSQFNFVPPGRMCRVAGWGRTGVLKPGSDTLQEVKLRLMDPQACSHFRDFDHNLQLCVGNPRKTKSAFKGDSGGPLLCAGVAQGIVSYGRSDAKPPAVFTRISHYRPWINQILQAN
In short: as §1

CathepsinG = target: T5, CathepsinG (Homo sapiens, UniProt P08311); assay: Serine protease inhibition: cathepsin G; type: biochemical, mammalian; conditions: Table 8B
T5 construct: purchased EMD Millipore 219373
T5 sequence (P08311 21-244): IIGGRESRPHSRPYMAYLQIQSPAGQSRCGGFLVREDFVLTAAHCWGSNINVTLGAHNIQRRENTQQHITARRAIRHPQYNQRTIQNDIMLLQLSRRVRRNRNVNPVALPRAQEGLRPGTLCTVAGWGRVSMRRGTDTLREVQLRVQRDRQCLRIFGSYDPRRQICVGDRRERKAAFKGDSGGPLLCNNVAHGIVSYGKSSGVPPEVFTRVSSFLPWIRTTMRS
In short: as §1

KP1005 (CTX-M-14) = assay: Potentiation of aztreonam, strain KP1005; type: cell-based
[1] = target: T6, Dipeptidyl peptidase 8 (DPP8) (Homo sapiens, UniProt Q6V1X1); assay: Serine protease inhibition: DPP8; type: biochemical, mammalian; conditions: Table 8B; read-out: IC50 DPP8
T6 construct: purchased BPS Bioscience 80080
T6 sequence (Q6V1X1 whole entry): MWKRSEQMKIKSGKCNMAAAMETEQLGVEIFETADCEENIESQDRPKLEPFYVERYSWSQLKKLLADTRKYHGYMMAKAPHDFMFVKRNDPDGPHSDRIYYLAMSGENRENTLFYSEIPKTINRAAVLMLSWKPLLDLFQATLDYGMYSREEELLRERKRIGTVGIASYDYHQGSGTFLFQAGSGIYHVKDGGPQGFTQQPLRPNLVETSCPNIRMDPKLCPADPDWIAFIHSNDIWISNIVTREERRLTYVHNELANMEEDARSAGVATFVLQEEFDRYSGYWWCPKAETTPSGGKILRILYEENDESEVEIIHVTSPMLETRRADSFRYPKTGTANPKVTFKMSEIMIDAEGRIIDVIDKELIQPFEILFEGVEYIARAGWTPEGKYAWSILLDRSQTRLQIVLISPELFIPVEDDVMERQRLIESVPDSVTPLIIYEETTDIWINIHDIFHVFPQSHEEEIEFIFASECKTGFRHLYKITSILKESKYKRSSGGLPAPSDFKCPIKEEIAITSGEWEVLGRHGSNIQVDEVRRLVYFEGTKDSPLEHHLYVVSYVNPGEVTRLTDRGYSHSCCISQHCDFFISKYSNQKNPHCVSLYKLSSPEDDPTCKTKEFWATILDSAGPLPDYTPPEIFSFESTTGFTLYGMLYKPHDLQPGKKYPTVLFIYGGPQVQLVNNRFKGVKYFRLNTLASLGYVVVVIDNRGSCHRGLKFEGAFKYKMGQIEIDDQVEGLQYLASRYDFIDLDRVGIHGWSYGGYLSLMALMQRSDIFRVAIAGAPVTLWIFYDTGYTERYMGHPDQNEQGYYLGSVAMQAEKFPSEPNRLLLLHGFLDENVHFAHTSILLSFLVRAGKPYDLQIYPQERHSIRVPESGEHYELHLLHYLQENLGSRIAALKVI
In short: as §1

Chymotrypsin = target: T7, Chymotrypsin (Bos taurus, UniProt P00766); assay: Serine protease inhibition: chymotrypsin; type: biochemical, mammalian; conditions: Table 8A, class symbols; read-out: IC50 Chymotrypsin
T7 construct: purchased Calbiochem 230832
In short: as §1

[2] = target: T8, Dipeptidyl peptidase 9 (DPP9) (Homo sapiens, UniProt Q86TI2); assay: Serine protease inhibition: DPP9; type: biochemical, mammalian; conditions: Table 8B; read-out: IC50 DPP9
T8 construct: purchased BPS Bioscience 80090
T8 sequence (Q86TI2 whole entry): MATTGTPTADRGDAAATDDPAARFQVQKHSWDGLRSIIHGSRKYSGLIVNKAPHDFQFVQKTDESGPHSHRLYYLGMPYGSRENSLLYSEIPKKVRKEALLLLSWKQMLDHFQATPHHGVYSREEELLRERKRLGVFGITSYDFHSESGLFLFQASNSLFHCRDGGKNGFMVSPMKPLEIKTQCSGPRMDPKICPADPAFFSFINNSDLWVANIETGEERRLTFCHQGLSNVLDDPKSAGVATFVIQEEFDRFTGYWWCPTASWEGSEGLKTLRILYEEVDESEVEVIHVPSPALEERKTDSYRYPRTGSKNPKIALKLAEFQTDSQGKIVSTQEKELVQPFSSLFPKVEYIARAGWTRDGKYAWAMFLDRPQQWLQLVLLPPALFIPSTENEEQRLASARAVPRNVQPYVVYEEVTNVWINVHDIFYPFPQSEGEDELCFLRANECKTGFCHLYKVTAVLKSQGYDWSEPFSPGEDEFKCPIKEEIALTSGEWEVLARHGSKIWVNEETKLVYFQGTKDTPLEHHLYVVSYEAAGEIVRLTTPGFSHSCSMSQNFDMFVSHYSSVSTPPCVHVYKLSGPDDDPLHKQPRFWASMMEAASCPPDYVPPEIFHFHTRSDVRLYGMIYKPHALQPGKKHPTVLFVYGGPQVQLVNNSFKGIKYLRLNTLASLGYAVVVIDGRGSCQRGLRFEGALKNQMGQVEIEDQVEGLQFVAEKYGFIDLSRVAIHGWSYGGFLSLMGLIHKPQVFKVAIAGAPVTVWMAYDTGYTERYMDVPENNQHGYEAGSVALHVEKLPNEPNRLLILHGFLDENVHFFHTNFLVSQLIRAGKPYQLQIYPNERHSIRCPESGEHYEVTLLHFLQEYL
In short: as §1

KPC-2 = KPC-2 (Klebsiella pneumoniae, UniProt Q9F663); assay: Inhibition of nitrocefin cleavage by purified KPC-2; type: biochemical; conditions: nitrocefin reporter substrate, purified enzyme; read-out: Ki (KPC-2, NCF)
Sequence of KPC-2 (Q9F663 25-293, looked up, species assumed): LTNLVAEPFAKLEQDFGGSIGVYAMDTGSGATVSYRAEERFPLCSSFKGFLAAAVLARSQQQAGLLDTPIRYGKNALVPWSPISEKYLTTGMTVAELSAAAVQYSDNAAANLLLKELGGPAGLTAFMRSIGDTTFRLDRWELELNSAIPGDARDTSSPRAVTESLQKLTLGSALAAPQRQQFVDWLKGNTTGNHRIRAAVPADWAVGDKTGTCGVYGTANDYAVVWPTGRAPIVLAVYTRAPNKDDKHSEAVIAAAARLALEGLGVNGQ
In short: (§4)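 Steps: enzyme plus inhibitor dilutions in reaction buffer; 10 min at room temperature; add nitrocefin; read absorbance at 490 nm each 10 sec for 10 min.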

ec308 (SHV-5) [3] = assay: Potentiation of tigemonam, strain ec308; type: cell-based; conditions: minimum BLI concentration inhibiting growth with 4 μg/mL tigemonam
[4] = target: T9, Dipeptidyl peptidase 7 (DPP7) (Homo sapiens, UniProt Q9UHL4); assay: Serine protease inhibition: DPP7; type: biochemical, mammalian; conditions: Table 8B; read-out: IC50 DPP7
T9 construct: purchased R&D Systems 3438-SE
Description: as §2, §3

KP1009 (CTX-M-15) = assay: Potentiation of tigemonam, strain KP1009; conditions: minimum BLI concentration inhibiting growth with 4 μg/mL tigemonam
PAM1032/KPC-2 = assay: Biapenem potentiation in PAM1032/KPC-2 (MexAB-OprM overexpressed); type: cell-based, Pseudomonas aeruginosa; conditions: BLI potency to decrease biapenem MIC 64-fold, 32 to 0.5 μg/ml; efflux proficient strain
Description: (§5) Efflux of BLIs from Pseudomonas aeruginosa by the MexAB-OprM efflux pump was also evaluated. […] Due to expression of KPC-2 both strains became resistant to biapenem. […] Potency of BLIs to potentiate biapenem in these strains was determined. […] The ratio of MPC64 values for each BLI in PAM1032/KPC-2 (efflux proficient) and PAM1154/KPC-2 (efflux deficient) was determined to generate the Efflux Index (EI).

PAM1154/KPC-2 = assay: Biapenem potentiation in PAM1154/KPC-2 (MexAB-OprM lacking); type: cell-based, Pseudomonas aeruginosa
Description: as §5

SHV-12 = SHV-12 (Klebsiella pneumoniae, UniProt P0AD64, E235K/G234S/L31Q); assay: Inhibition of nitrocefin cleavage by purified SHV-12; type: biochemical; conditions: nitrocefin reporter substrate, purified enzyme; read-out: Ki (SHV-12, NCF)
Sequence of SHV-12 (P0AD64 22-286 L31Q/G234S/E235K): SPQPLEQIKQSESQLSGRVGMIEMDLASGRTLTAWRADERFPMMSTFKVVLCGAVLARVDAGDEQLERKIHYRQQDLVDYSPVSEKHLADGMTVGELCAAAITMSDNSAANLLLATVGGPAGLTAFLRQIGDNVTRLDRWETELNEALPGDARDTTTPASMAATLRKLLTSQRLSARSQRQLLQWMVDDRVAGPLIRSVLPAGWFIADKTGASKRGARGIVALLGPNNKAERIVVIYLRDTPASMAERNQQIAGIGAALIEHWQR
In short: as §4

Trypsin = target: T10, Trypsin (Bos taurus, UniProt P00760); assay: Serine protease inhibition: trypsin; type: biochemical, mammalian; conditions: Table 8A, class symbols; read-out: IC50 Trypsin
T10 construct: purchased Calbiochem 6502
T10 sequence (P00760 24-246): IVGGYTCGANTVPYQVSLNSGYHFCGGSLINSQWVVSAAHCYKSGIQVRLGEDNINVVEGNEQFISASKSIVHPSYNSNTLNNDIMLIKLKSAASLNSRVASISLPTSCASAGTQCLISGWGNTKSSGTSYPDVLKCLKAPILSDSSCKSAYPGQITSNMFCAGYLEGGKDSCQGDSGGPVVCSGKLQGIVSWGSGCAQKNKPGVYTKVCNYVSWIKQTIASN
Description: as §2, §3

ec308 (SHV-5) [5] = assay: Potentiation of aztreonam, strain ec308; type: cell-based; conditions: minimum BLI concentration inhibiting growth with 4 μg/mL aztreonam
ECL1002 = assay: Potentiation of aztreonam, strain ECL1002; type: cell-based; conditions: minimum BLI concentration inhibiting growth with 4 μg/mL aztreonam

SMILES | IC50 (Urokinase) [µM] | IC50 (Plasmin) [µM] | IC50 (Elastase) [µM] | AZT MPC4 K-2 KP1004 (KP1004 (K-2)) | IC50 (Chymase) [µM] | IC50 (CathepsinG) [µM] | AZT MPC4 CTX-M-14 KP1005 (KP1005 (CTX-M-14)) | IC50 [1] [µM] | IC50 (Chymotrypsin) [µM] | IC50 [2] [µM] | Ki (KPC-2) [µM] | TIG MPC4 SHV-5 ec308 (ec308 (SHV-5) [3]) | IC50 [4] [µM] | TIG MPC4 CTX-M-15 KP1009 (KP1009 (CTX-M-15)) | PAM1032/KPC-2 Biapenem MPC64 (PAM1032/KPC-2) | PAM1154/KPC-2 Biapenem MPC64 (PAM1154/KPC-2) | Ki (SHV-12) [µM] | IC50 (Trypsin) [µM] | AZT MPC4 SHV-5 ec308 (ec308 (SHV-5) [5]) | AZT MPC4 ECL1002 (ECL1002)
O=C(Cc1cccs1)N[C@H]1Cc2cccc(C(=O)O)c2OB1O [CPD A, reference compound] | > 800 | > 800 | > 800 | Y (Y = MIC of 1 μg/mL to 10 μg/mL) | < 300 | < 15 | Y (key: X = MIC of less than 1 μg/mL; Y = MIC of 1 μg/mL to 10 μg/mL; Z = MIC of greater than 10 μg/mL) | 15 to 500 | < 300 | 15 to 500 | > 0.01 | Y (Y = MIC of 1 μg/mL to 10 μg/mL) | > 500 | Y (Y = MIC of 1 μg/mL to 10 μg/mL) | Z (Z Greater than 40) | X (key: X = Less than 10; Y = 10 to 40; Z Greater than 40) | < 0.001 | > 800 | X (X = MIC of less than 1 μg/mL) | Y (Y = MIC of 1 μg/mL to 10 μg/mL)
O=C(CSc1nncs1)N[C@H]1Cc2cccc(C(=O)O)c2OB1O [Compound 7, (R)-3-(2-(1,3,4-thiadiazol-2-ylthio)acetamido)-2-hydroxy-3,4-dihydro-2H-benzo[e][1,2]oxaborinine-8-carboxylic acid] | > 800 | > 800 | > 800 | Y (Y = MIC of 1 μg/mL to 10 μg/mL) | > 800 | 15 to 500 | X (key: X = MIC of less than 1 μg/mL; Y = MIC of 1 μg/mL to 10 μg/mL; Z = MIC of greater than 10 μg/mL) | 15 to 500 | > 800 | > 500 | > 0.01 | X (X = MIC of less than 1 μg/mL) | > 500 | X (X = MIC of less than 1 μg/mL) | Z (Z Greater than 40) | X (key: X = Less than 10; Y = 10 to 40; Z Greater than 40) | < 0.001 | > 800 | X (X = MIC of less than 1 μg/mL) | Y (Y = MIC of 1 μg/mL to 10 μg/mL)
